Tested on: flea serine proteases
Experiment: in vitro inhibition of flea protease activity
Assay type: biochemical
Source text: In one embodiment, a protease inhibitor that can be used in a composition of the present invention to treat an animal is identified by a method including the following steps: (a) identifying candidate (i.e., putative, possible) inhibitor compounds by testing the efficacy of one or more protease inhibitors (i) in vitro for their ability to inhibit flea protease activity and/or (ii) in a flea feeding assay for their ability to reduce the survival and/or fecundity of fleas by adding the inhibitors to the blood meal of a flea being maintained, for example, in a feeding system, such as that described by Wade et al., 1988, J. Med Entomol. 25, 186-190; and (b) testing the efficacy of the candidate inhibitor compounds in animals infested with fleas. […] Furthermore, candidate inhibitor compounds identified by the flea feeding assays can include not only desired compounds but also compounds that reduce the viability and/or fecundity of fleas due to general toxicity (e.g., affecting the mitochondria of fleas).

aprotinin
inhibition of flea serine proteases in the presence of serum proteins (in the presence of serum proteins, such as are found in the blood): does not work well
inhibition of flea serine proteases (in vitro): can inhibit at least some flea serine proteases in vitro

Reference: patent publication US6406900B1, “Flea protease proteins, nucleic acid molecules and uses thereof” (Heska Corporation, priority 1991, dated 2002)
